# Legend:
# [1] = target: Bcl-xL protein (Homo sapiens (Human), UniProt Q07817); assay: TR-FRET binding assay, Bcl-xL; details: F-Bak peptide probe
# Procedure: (§1) Determination of the utility of compounds having Formula (I) or Formula (II) as binders to and inhibitors of anti-apoptotic Bcl-2 proteins was performed using the Time Resolved-Fluorescence Resonance Energy Transfer (TR-FRET) Assay. Tb-anti-GST antibody was purchased from Invitrogen (Catalog No. PV4216).
# A human Bcl-xL encoding sequence was cloned into a pET41A vector. The protein was expressed with E. coli. BL21(DE3)-T1R strain in OETB autoinduction medium at 30° C. for 25 hours. The cell pellets were resuspended in lysis buffer (50 mM Tris, 140 mM NaCl, 1 mM DTT, 10% Glycerol, 0.1% Triton X-100, pH 7.5) and lysed with Microfluidizer. The Bcl-xL protein in clarified cell-lysate was purified with GST affinity chromatography. The eluate was dialyzed in the storage buffer (1×PBS, 10% Glycerol, 2 mM DTT, 1 mM Sodium Azide, pH 7.4) and stored at −80° C.
# (§2) […] of a protein (Bcl-2 or Bcl-xL)/probe/antibody mixture pre-equilibrated for one hour in assay buffer was added to each well at final concentrations listed in Table 6 below.
# (§3) The samples were then mixed on a shaker for 1 minute and equilibrated for an additional 3 hours at room temperature. For each assay plate, a probe/antibody and protein/antibody/probe mixture were included as a negative and a positive control, respectively. Fluorescence was measured on the Envision (Perkin Elmer) using a 340/35 nm excitation filter and 520/525 (F-Bak) and 495/510 nm (Tb-labeled anti-GST antibody) emission filters. Inhibition constants (Ki) were determined using Wang's equation (Wang FEBS Lett. 1995, 360, 111-114). The TR-FRET assay can be performed in the presence of varying concentrations of human serum (HS) to determine apparent half maximal inhibitory concentration (IC50) after HS protein binding.
# (§4) Inhibition constants were determined using Wang's equation (Wang FEBS Lett. 1995, 360:111-4).
# [2] = tested on: Molt-4 cells; assay: Cell viability counter screen (CellTiter-Glo) in Molt-4 cells; assay type: cell-based; details: 24 hours, 10% Human Serum
# Procedure: (§5) The acute lymphoblastic leukemia (ALL) human cell line RS4;11 (ATCC, Manassas VA) was used as the primary human cell line to assess the cellular activity of compound of the present Examples in vitro and their efficacy in vivo. […] The acute lymphoblastic leukemia cell line Molt-4, which is derived from immature T-lymphoid cells (T-ALL), was used as a counter screen assay.
# (§6) 3000 Cells (0.1×10^6/mL) were seeded in each well of 384-well plate and were treated for 24 hours in a humidified chamber with 5% CO2. Cell viability was determined by CellTiter-Glo as described by the manufacturer's instructions (Promega Corporation, Madison, WI, USA).
# [3] = target: Bcl-2 protein (Homo sapiens (Human), UniProt P10415); assay: TR-FRET binding assay, Bcl-2; details: F-Bak peptide probe, GST-Bcl-2
# Sequence of Bcl-2 protein (P10415 other isoform, or with tags, fused parts or gaps): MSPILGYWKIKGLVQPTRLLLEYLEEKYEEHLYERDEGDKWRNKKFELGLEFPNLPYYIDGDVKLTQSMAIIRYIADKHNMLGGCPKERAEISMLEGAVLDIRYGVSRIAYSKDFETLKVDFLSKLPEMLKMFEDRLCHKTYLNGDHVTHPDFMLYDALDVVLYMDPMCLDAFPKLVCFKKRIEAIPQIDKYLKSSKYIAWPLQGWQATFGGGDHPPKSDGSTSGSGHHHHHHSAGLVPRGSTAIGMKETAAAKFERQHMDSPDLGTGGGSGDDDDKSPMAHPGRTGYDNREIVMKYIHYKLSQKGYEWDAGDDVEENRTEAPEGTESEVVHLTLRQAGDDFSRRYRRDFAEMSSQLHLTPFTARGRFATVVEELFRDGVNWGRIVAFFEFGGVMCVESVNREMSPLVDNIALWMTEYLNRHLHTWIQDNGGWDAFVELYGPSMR
# Procedure: as §1
# A Bcl-2 human encoding sequence was cloned into a pET41A vector (Novagen). The protein was expressed with E. coli. BL21(DE3)-T1R strain in OETB autoinduction medium at 30° C. for 25 hours. The cell pellets were resuspended in lysis buffer (50 mM Tris, 140 mM NaCl, 1 mM DTT, 10% Glycerol, 2 mM MgCl2, pH 7.3) and lysed with Microfluidizer. The Bcl-2 protein in clarified cell-lysate was purified with affinity chromatography (GST and Ni-NTA). The eluate was loaded onto a Superdex 75 column and further purified with a Q Sepharose column. The protein was purified on a phenyl hydrophobic interaction column and dialyzed in the storage buffer (50 mM Tris, 50 mM NaCl, 2 mM DTT, pH 7.5) and stored at −80° C.
# as §2, §3, §4
# [4] = tested on: RS4;11 cells; assay: Cell viability assay (CellTiter-Glo) in RS4;11 cells; assay type: cell-based; details: 24 hours, 10% Human Serum
# Procedure: as §5, §6
# Sequence of Bcl-xL protein (Q07817 other isoform, or with tags, fused parts or gaps): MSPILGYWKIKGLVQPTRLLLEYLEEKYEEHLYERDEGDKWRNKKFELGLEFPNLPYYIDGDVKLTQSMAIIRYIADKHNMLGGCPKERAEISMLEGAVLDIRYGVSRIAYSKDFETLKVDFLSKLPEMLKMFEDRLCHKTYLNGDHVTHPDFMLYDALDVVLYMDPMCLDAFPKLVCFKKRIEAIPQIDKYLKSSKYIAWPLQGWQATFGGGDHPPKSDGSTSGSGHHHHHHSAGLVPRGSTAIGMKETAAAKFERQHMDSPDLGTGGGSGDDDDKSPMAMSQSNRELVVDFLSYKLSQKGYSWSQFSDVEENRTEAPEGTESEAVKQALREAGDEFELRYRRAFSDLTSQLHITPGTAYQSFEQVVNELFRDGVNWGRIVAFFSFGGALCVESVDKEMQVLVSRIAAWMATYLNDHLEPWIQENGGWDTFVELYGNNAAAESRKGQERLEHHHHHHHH
Structure (SMILES),Ki [1] [nM],EC50 [2] [nM],Ki [3] [nM],EC50 [4] [nM]
"C[C@@H]1CO[C@@H](CNc2ccc(S(=O)(=O)NC(=O)c3ccc(N4CCN5CC6=C(c7ccc(Cl)cc7)CC(C)(C)C[C@H]6OCCCOC[C@@H]5C4)cc3N3CCCOc4nc5[nH]ccc5cc43)cc2[N+](=O)[O-])CO1 [Example 6, 4-((4aS,10aR)-14-(4-chlorophenyl)-12,12-dimethyl-1,2,4a,5,8,9,10a,11,13,15-decahydro-7H,12H-benzo[f]pyrazino[2,1-c][1,8]dioxa[4]azacycloundecin-3(4H)-yl)-2-(3,4-dihydro-2H-pyrrolo[3′,2′:5,6]pyrido[2,3-b][1,4]oxazepin-1(7H)-yl)-N-((4-((((2S,5R)-5-methyl-1,4-dioxan-2-yl)methyl)amino)-3-nitrophenyl)sulfonyl)benzamide]",5.62,1910,0.438,1.55
"CC1(C)CC(c2ccc(Cl)cc2)=C2CN3CCN(c4ccc(C(=O)NS(=O)(=O)c5ccc(OC[C@H]6CC[C@](C)(O)CC6)c([N+](=O)[O-])c5)c(N5CCCOc6nc7[nH]ccc7cc65)c4)C[C@H]3COCCCO[C@@H]2C1 [Example 44, 4-((4aS,10aR)-14-(4-chlorophenyl)-12,12-dimethyl-1,2,4a,5,8,9,10a,11,13,15-decahydro-7H,12H-benzo[f]pyrazino[2,1-c][1,8]dioxa[4]azacycloundecin-3(4H)-yl)-2-(3,4-dihydro-2H-pyrrolo[3′,2′:5,6]pyrido[2,3-b][1,4]oxazepin-1(7H)-yl)-N-((4-(((1r,4r)-4-hydroxy-4-methylcyclohexyl)methoxy)-3-nitrophenyl)sulfonyl)benzamide]",–,2270,–,4.39
"C[C@@H]1CC[C@H](CNc2ccc(S(=O)(=O)NC(=O)c3ccc(N4CCN5CC6=C(c7ccc(Cl)cc7)CC(C)(C)C[C@H]6OCCCOC[C@@H]5C4)cc3N3CCCOc4nc5[nH]ccc5cc43)cc2[N+](=O)[O-])OC1 [Example 21, 4-((4aS,10aR)-14-(4-chlorophenyl)-12,12-dimethyl-1,2,4a,5,8,9,10a,11,13,15-decahydro-7H,12H-benzo[f]pyrazino[2,1-c][1,8]dioxa[4]azacycloundecin-3(4H)-yl)-2-(3,4-dihydro-2H-pyrrolo[3′,2′:5,6]pyrido[2,3-b][1,4]oxazepin-1(7H)-yl)-N-((4-((((2R,5R)-5-methyltetrahydro-2H-pyran-2-yl)methyl)amino)-3-nitrophenyl)sulfonyl)benzamide]",–,3280,–,4.89
"CO[C@@H]1CC[C@@H](COc2ccc(S(=O)(=O)NC(=O)c3ccc(N4CCN5CC6=C(c7ccc(Cl)cc7)CC(C)(C)C[C@H]6OCCCOC[C@@H]5C4)cc3N3CCCOc4nc5[nH]ccc5cc43)cc2[N+](=O)[O-])OC1 [Example 51, 4-((4aS,10aR)-14-(4-chlorophenyl)-12,12-dimethyl-1,2,4a,5,8,9,10a,11,13,15-decahydro-7H,12H-benzo[f]pyrazino[2,1-c][1,8]dioxa[4]azacycloundecin-3(4H)-yl)-2-(3,4-dihydro-2H-pyrrolo[3′,2′:5,6]pyrido[2,3-b][1,4]oxazepin-1(7H)-yl)-N-((4-(((2S,5R)-5-methoxytetrahydro-2H-pyran-2-yl)methoxy)-3-nitrophenyl)sulfonyl)benzamide]",–,> 10000,–,9.6
"CC1(C)CC(c2ccc(Cl)cc2)=C2CN3CCN(c4ccc(C(=O)NS(=O)(=O)c5ccc(NC[C@H]6COCCO6)c([N+](=O)[O-])c5)c(N5CCCOc6nc7[nH]ccc7cc65)c4)C[C@H]3COCCCO[C@@H]2C1 [Example 3, N-((4-((((S)-1,4-dioxan-2-yl)methyl)amino)-3-nitrophenyl)sulfonyl)-4-((4aS,10aR)-14-(4-chlorophenyl)-12,12-dimethyl-1,2,4a,5,8,9,10a,11,13,15-decahydro-7H,12H-benzo[f]pyrazino[2,1-c][1,8]dioxa[4]azacycloundecin-3(4H)-yl)-2-(3,4-dihydro-2H-pyrrolo[3′,2′:5,6]pyrido[2,3-b][1,4]oxazepin-1(7H)-yl)benzamide]",–,1410,–,1.36
"COC[C@]1(F)C[C@H](CNc2ccc(S(=O)(=O)NC(=O)c3ccc(N4CCN5CC6=C(c7ccc(Cl)cc7)CC(C)(C)C[C@H]6OCCCOC[C@@H]5C4)cc3N3CCCOc4nc5[nH]ccc5cc43)cc2[N+](=O)[O-])C1 [Example 47, 4-((4aS,10aR)-14-(4-chlorophenyl)-12,12-dimethyl-1,2,4a,5,8,9,10a,11,13,15-decahydro-7H,12H-benzo[f]pyrazino[2,1-c][1,8]dioxa[4]azacycloundecin-3(4H)-yl)-2-(3,4-dihydro-2H-pyrrolo[3′,2′:5,6]pyrido[2,3-b][1,4]oxazepin-1(7H)-yl)-N-((4-((((1r,3r)-3-fluoro-3-(methoxymethyl)cyclobutyl)methyl)amino)-3-nitrophenyl)sulfonyl)benzamide]",–,> 10000,–,10.9
"CC1(C)CC(c2ccc(Cl)cc2)=C2CN3CCN(c4ccc(C(=O)NS(=O)(=O)c5ccc(OC[C@H]6CC[C@@](C)(O)CC6)c([N+](=O)[O-])c5)c(N5CCCOc6nc7[nH]ccc7cc65)c4)C[C@H]3COCCCO[C@@H]2C1 [Example 49, 4-((4aS,10aR)-14-(4-chlorophenyl)-12,12-dimethyl-1,2,4a,5,8,9,10a,11,13,15-decahydro-7H,12H-benzo[f]pyrazino[2,1-c][1,8]dioxa[4]azacycloundecin-3(4H)-yl)-2-(3,4-dihydro-2H-pyrrolo[3′,2′:5,6]pyrido[2,3-b][1,4]oxazepin-1(7H)-yl)-N-((4-(((1s,4s)-4-hydroxy-4-methylcyclohexyl)methoxy)-3-nitrophenyl)sulfonyl)benzamide]",–,36,–,25
"CO[C@]1(CF)C[C@@H](CNc2ccc(S(=O)(=O)NC(=O)c3ccc(N4CCN5CC6=C(c7ccc(Cl)cc7)CC(C)(C)C[C@H]6OCCCOC[C@@H]5C4)cc3N3CCCOc4nc5[nH]ccc5cc43)cc2[N+](=O)[O-])C1 [Example 48, 4-((4aS,10aR)-14-(4-chlorophenyl)-12,12-dimethyl-1,2,4a,5,8,9,10a,11,13,15-decahydro-7H,12H-benzo[f]pyrazino[2,1-c][1,8]dioxa[4]azacycloundecin-3(4H)-yl)-2-(3,4-dihydro-2H-pyrrolo[3′,2′:5,6]pyrido[2,3-b][1,4]oxazepin-1(7H)-yl)-N-((4-((((1r,3r)-3-(fluoromethyl)-3-methoxycyclobutyl)methyl)amino)-3-nitrophenyl)sulfonyl)benzamide]",–,5840,–,18.1
"CC1(C)CC(c2ccc(Cl)cc2)=C2CN3CCN(c4ccc(C(=O)NS(=O)(=O)c5ccc(NCC6CCCCO6)c([N+](=O)[O-])c5)c(N5CCCOc6nc7[nH]ccc7cc65)c4)C[C@H]3COCCCO[C@@H]2C1 (stereo partly drawn) [Example 45, 4-((4aS,10aR)-14-(4-chlorophenyl)-12,12-dimethyl-1,2,4a,5,8,9,10a,11,13,15-decahydro-7H,12H-benzo[f]pyrazino[2,1-c][1,8]dioxa[4]azacycloundecin-3(4H)-yl)-2-(3,4-dihydro-2H-pyrrolo[3′,2′:5,6]pyrido[2,3-b][1,4]oxazepin-1(7H)-yl)-N-((3-nitro-4-(((tetrahydro-2H-pyran-2-yl)methyl)amino)phenyl)sulfonyl)benzamide]",–,> 10000,–,10.7
"CO[C@H]1CC[C@H](COc2ccc(S(=O)(=O)NC(=O)c3ccc(N4CCN5CC6=C(c7ccc(Cl)cc7)CC(C)(C)C[C@H]6OCCCOC[C@@H]5C4)cc3N3CCCOc4nc5[nH]ccc5cc43)cc2Cl)OC1 [Example 40, N-((3-chloro-4-(((2R,5S)-5-methoxytetrahydro-2H-pyran-2-yl)methoxy)phenyl)sulfonyl)-4-((4aS,10aR)-14-(4-chlorophenyl)-12,12-dimethyl-1,2,4a,5,8,9,10a,11,13,15-decahydro-7H,12H-benzo[f]pyrazino[2,1-c][1,8]dioxa[4]azacycloundecin-3(4H)-yl)-2-(3,4-dihydro-2H-pyrrolo[3′,2′:5,6]pyrido[2,3-b][1,4]oxazepin-1(7H)-yl)benzamide]",199,> 10000,0.349,–

# — US20250066388A1, “1,3,4,7-TETRAHYDRO-2H-PYRROLO[3',2':5,6]PYRIDO[2,3-B][1,4]OXAZEPINE BCL-2 INHIBITORS” (AbbVie Inc., priority 2022, published 2025)
